According to patent publication US5788964A, “Method for sensitization of cancer cells for killer cell mediated lysis” (Orion-Yhtyma Oy, priority 1996, dated 1998):

Legend:
[1] = test system: P815 (NK resistant murine mastocytoma); assay: LAK cell mediated cytotoxicity (51Cr release), rat LAK; settings: for target cell lysis, effector cells pretreated (in words): LAK effectors pretreated; for lysis of treated targets by treated effectors (in words) / target cell lysis, target cells treated (in words): LAK effectors; for lysis of treated targets by treated effectors (in words): both treated; for target cell lysis, target cells treated (in words): target cells treated for 4 h prior to the cytotoxic reaction
Procedure: Rat spleen cells were used as effector cells either without activation (NK cells), or after treatment with human IL-2 (LAK), or after stimulation with the Nb2 rat lymphoma in mixed cultures (CTL). The Yac-1 murine lymphoma was used as a target for NK cells, the P815 mastocytoma for LAK cells and Nb2 cells for CTL. […] Target cells were labeled with ^51 Cr for 1 hr, then washed. The specific ^51 Cr release was determined after 4 hours of incubation at 37° C., 5% CO2 (target/effector 1:25).
Target cells: P815 (NKresistant murine mastocytoma)
Effectar cells: Spleen cells of Fischer rats were cultured in medium
supplemented with 500 U/ml riL2 for 6 days at 37° C. and 5%

P815 tumor cells = assay: Winn assay, pretreated P815 cells mixed with LAK cells 1:25 (Example 2); format: in vivo, DBA/2 mice; settings: target:effector 1:25, s.c., groups of 4
Procedure: (§1) For the generation of LAK cells, 2×10^6 /ml of spleen cells from female DBA/N2 mice were cultured for 5 days in RPMI-1640 medium supplemented with 10%FCS, 5×10^-5 M 2-mercaptoethanol and 500 U/mI of human recombinant interleukin-2 at 370C in humidified air containing 5% CO2.

P815 mastocytoma = assay: Immunotherapy of P815 mastocytoma, drug by gavage and LAK cells (Example 6); format: in vivo, DBA/2 mice; settings: 10 mg/kg/day by gavage, with or without LAK as labelled
Procedure: DBA/2 female mice were injected s. c. with 10^4 P815 tumor cells. […] Two days later 25×10^4 LAK cells were given i.p., LAK was injected three times more, four days apart. Drug treatment was maintained from day 14 until day 30.

P815 cells = assay: 51Cr assay, killing of P815 cells by LAK cells from DBA/N2 mice (Example 2); settings: Mus musculus, P815, 4 h, read-out: P815 cells killed by LAK cells
Procedure: as §1

Yac1 murine lymphoma = assay: NK cell mediated cytotoxicity (51Cr release); settings: for target cell lysis, effector cells pretreated (in words): NK effectors pretreated; for lysis of treated targets by treated effectors (in words) / target cell lysis, target cells treated (in words): NK effectors; for lysis of treated targets by treated effectors (in words): both treated; for target cell lysis, target cells treated (in words): target cells treated for 4 h prior to the cytotoxic reaction
Procedure: (§2) Target cells were labeled with ^51 Cr for 1 hr, then washed. The specific ^51 Cr release was determined after 4 hours of incubation at 37° C., 5% CO2 (target/effector 1:25).
Target cells: Yac1 murine lymphoma
Effector cells: Spleen lymphocytes of female Fishner rats

P815 tumor = P815 tumor growth, drug in drinking water with or without LAK (Example 3); format: in vivo, mice; settings: drinking water TX 100 μg/ml, TO 400 μg/ml; LAK 1:25 then weekly for 3 weeks
Nb2 rat lymphoma = assay: Target cell destruction by cytolytic lymphocytes (CTL) generated in mixed cultures (51Cr release); settings: for target cell lysis, effector cells pretreated (in words): CTL effectors pretreated; for lysis of treated targets by treated effectors (in words) / target cell lysis, target cells treated (in words): CTL effectors; for lysis of treated targets by treated effectors (in words): both treated; for target cell lysis, target cells treated (in words): target cells treated for 4 h prior to the cytotoxic reaction
Procedure: as §2
Target cells: Nb2 rat lymphoma
Effector cells: Cytotoxic Tlymphocytes (CTL) generated in mixed cultures,
Responder: Spleen cells of Fischer rats. Stimulator: Nb2 cells (thymic

tumor estrogen receptors = settings: background statement; cited from earlier work

For CN(C)CCOc1ccc(/C(=C(/CCCl)c2ccccc2)c2ccccc2)cc1 [TO, toremifene], the “target cell lysis, effector cells pretreated (in words)” value [1] was “no such enhancing effect”, the “lysis of treated targets by treated effectors (in words)” value (shortened to “lysis of treated targets”) [1] was “lysed treated targets as efficiently as did nontreated effectors” and the “target cell lysis, target cells treated (in words)” value [1] was “enhanced target cell lysis in a dose dependent fashion”. The “animals protected / survival” value (P815 tumor cells) was 1 of 4, the partial regression (P815 mastocytoma) was “one” and the cytotoxicity at 5 µM (P815 cells) was 51%. The “target cell lysis, effector cells pretreated (in words)” value (Yac1 murine lymphoma) was “no such enhancing effect”, the “lysis of treated targets” value (Yac1 murine lymphoma) was “lysed treated targets as efficiently as did nontreated effectors” and the “target cell lysis, target cells treated (in words)” value (Yac1 murine lymphoma) was “enhanced target cell lysis in a dose dependent fashion”. For the same compound, the tumor free animals (P815 tumor) was “one”, the “target cell lysis, effector cells pretreated (in words)” value (Nb2 rat lymphoma) was “no such enhancing effect” and the “lysis of treated targets” value (Nb2 rat lymphoma) was “lysed treated targets as efficiently as did nontreated effectors”. For the same compound, the “target cell lysis, target cells treated (in words)” value (Nb2 rat lymphoma) was “enhanced target cell lysis in a dose dependent fashion”.
With CC/C(=C(\c1ccccc1)c1ccc(OCCN(C)C)cc1)c1ccccc1 [TX, tamoxifen] the “target cell lysis, effector cells pretreated (in words)” value [1] was “no such enhancing effect”, the “lysis of treated targets” value [1] was “lysed treated targets as efficiently as did nontreated effectors” and the “target cell lysis, target cells treated (in words)” value [1] was “enhanced target cell lysis in a dose dependent fashion”. The “animals protected / survival” value (P815 tumor cells) was “killed all the animals”, the “inhibition of estrogen-induced growth” value (tumor estrogen receptors) was “inhibit estrogen-induced growth by competitive antagonism of tumor estrogen receptors” and the partial regression (P815 mastocytoma) was “one”. For the same compound, the cytotoxicity at 1 µM (P815 cells) was 52%, the “target cell lysis, effector cells pretreated (in words)” value (Yac1 murine lymphoma) was “no such enhancing effect” and the “lysis of treated targets” value (Yac1 murine lymphoma) was “lysed treated targets as efficiently as did nontreated effectors”. For the same compound, the “target cell lysis, target cells treated (in words)” value (Yac1 murine lymphoma) was “enhanced target cell lysis in a dose dependent fashion”, the “target cell lysis, effector cells pretreated (in words)” value (Nb2 rat lymphoma) was “no such enhancing effect” and the “lysis of treated targets” value (Nb2 rat lymphoma) was “lysed treated targets as efficiently as did nontreated effectors”. The “target cell lysis, target cells treated (in words)” value (Nb2 rat lymphoma) was “enhanced target cell lysis in a dose dependent fashion”.
